{"source": "paper PMC12645083", "about": "“Microwave‐Enhanced Synthesis of 2‐Styrylquinoline‐4‐Carboxamides With Promising Anti‐Lymphoma Activity” (Archiv Der Pharmazie, 2025)", "assay_in_all_cases": "In vitro antiproliferative activity, resazurin cell viability", "type_in_all_cases": "cell-based", "key": {"A549": {"test_system": "A549", "settings": "Homo sapiens, non-small cell lung cancer, 72 h of treatment, mean ± SEM", "method": "(§1) To test the newly synthesized compounds, various human cell lines were employed. HD‐MB03 cells were purchased from DSMZ (Braunschweig, Germany), while A549, MDA‐MB‐231, RPMI‐8420, SU‐DHL‐8, TOLEDO, VL51, SU‐DHL‐1, SU‐DHL‐18, and KM‐H2 were obtained from ATCC (Manassas, VA, USA). Cells were cultured in DMEM (for MDA‐MB‐231 and A549) or RPMI‐1640 (for RPMI‐8420, SU‐DHL‐8, TOLEDO, VL51, SU‐DHL‐1, SU‐DHL‐18, KM‐H2, and HD‐MB03) media (Gibco, Milan, Italy). Both media were supplemented with 115 units/mL penicillin G (Gibco, Milan, Italy), 115 µg/mL streptomycin (Invitrogen, Milan, Italy), and 10% fetal bovine serum (Invitrogen, Milan, Italy). Peripheral blood mononuclear cells (PBMCs) were isolated from healthy donors as previously described. For cytotoxicity assays, PBMCs were resuspended at 5 × 10⁵ cells/mL in complete RPMI medium with or without 2.5 µg/mL phytohemagglutinin (PHA) (Irvine Scientific) to stimulate T‐cell activation and proliferation. All cell lines were maintained at 37°C in a humidified atmosphere containing 5% CO₂. All compounds were dissolved in DMSO at a 10 mM stock concentration. For dose–response assays, cells were seeded in 96‐well plates at densities optimized for each cell line: HD‐MB03 at 10,000 cells/well, A549 at 4000 cells/well, and MDA‐MB‐231 at 7000 cells/well. All other cell lines were seeded at 20,000 cells/well in a final volume of 100 µL per well. After 24 h, cells were treated with a 6‐point serial dilution of compounds starting from 10 µM, in triplicate for statistical analysis. Seventy‐2 h posttreatment, 10 µL of resazurin solution (100 µg/mL) was added to each well, and cells were incubated for an additional 3–6 h. Fluorescence was measured using a Spark 10 M microplate reader (Tecan Group Ltd., Männedorf, Switzerland) with excitation at 535 nm and emission at 600 nm. The IC₅₀ was defined as the concentration of compound required to inhibit cell proliferation by 50% compared to cells treated with the highest DMSO concentration.\n(§2) To test the newly synthesized compounds, various human cell lines were employed. HD-MB03 cells were purchased from DSMZ (Braunschweig, Germany), while A549, MDA-MB-231, RPMI-8420, SU-DHL-8, TOLEDO, VL51, SU-DHL-1, SU-DHL-18, and KM-H2 were obtained from ATCC (Manassas, VA, USA). Cells were cultured in DMEM (for MDA-MB-231 and A549) or RPMI-1640 (for RPMI-8420, SU-DHL-8, TOLEDO, VL51, SU-DHL-1, SU-DHL-18, KM-H2, and HD-MB03) media (Gibco, Milan, Italy). Both media were supplemented with 115 units/mL penicillin G (Gibco, Milan, Italy), 115 µg/mL streptomycin (Invitrogen, Milan, Italy), and 10% fetal bovine serum (Invitrogen, Milan, Italy). Peripheral blood mononuclear cells (PBMCs) were isolated from healthy donors as previously described. ^[1] For cytotoxicity assays, PBMCs were resuspended at 5 × 10⁵ cells/mL in complete RPMI medium with or without 2.5 µg/mL phytohemagglutinin (PHA) (Irvine Scientific) to stimulate T cell activation and proliferation. All cell lines were maintained at 37 °C in a humidified atmosphere containing 5% CO₂. All compounds were dissolved in DMSO at a 10 mM stock concentration. For dose–response assays, cells were seeded in 96-well plates at densities optimized for each cell line: HD-MB03 at 10,000 cells/well, A549 at 4,000 cells/well, and MDA-MB-231 at 7,000 cells/well. All other cell lines were seeded at 20,000 cells/well in a final volume of 100 µL per well. After 24 hours, cells were treated with a 6-point serial dilution of compounds starting from 10 µM, in triplicate for statistical analysis. Seventy-two hours post-treatment, 10 µL of resazurin solution (100 µg/mL) was added to each well, and cells were incubated for an additional 3–6 hours. Fluorescence was measured using a Spark 10M microplate reader (Tecan Group Ltd., Männedorf, Switzerland) with excitation at 535 nm and emission at 600 nm. […]"}, "HD-MB03": {"test_system": "HD-MB03", "settings": "Homo sapiens, medulloblastoma cells, 72 h of treatment, mean ± SEM, at least three experiments", "method": "as §1, §2"}, "MDA-MB-231": {"test_system": "MDA-MB-231", "settings": "Homo sapiens, triple-negative breast cancer, 72 h of treatment, mean ± SEM", "method": "as §1, §2"}, "RPMI-8402": {"test_system": "RPMI-8402", "settings": "Homo sapiens, T-lymphoblastic leukemia cells, 72 h of treatment, mean ± SEM", "method": "as §1, §2"}, "SU-DHL-8": {"test_system": "SU-DHL-8", "settings": "Homo sapiens, B lymphocyte, large cell lymphoma, 72 h of treatment, mean ± SEM", "method": "as §1, §2"}}, "data": [{"smiles": "O=C(Nc1ccc(Cl)cc1)c1cc(/C=C/c2ccccc2[N+](=O)[O-])nc2ccccc12", "note": "[4ah, (E)-N-(4-chlorophenyl)-2-(2-nitrostyryl)quinoline-4-carboxamide]", "values": [{"measurement": "IC50", "setting": "A549", "result": "6.92 ± 0.68", "unit": "µM"}, {"measurement": "IC50", "setting": "HD-MB03", "result": "> 10", "unit": "µM"}, {"measurement": "IC50", "setting": "MDA-MB-231", "result": "4.99 ± 0.35", "unit": "µM"}, {"measurement": "IC50", "setting": "RPMI-8402", "result": "1.33 ± 0.02", "unit": "µM"}, {"measurement": "IC50", "setting": "SU-DHL-8", "result": "2.15 ± 0.45", "unit": "µM"}]}, {"smiles": "O=C(Nc1ccc([N+](=O)[O-])cc1)c1cc(/C=C/c2ccccc2)nc2ccccc12", "note": "[4i, (E)-N-(4-nitrophenyl)-2-styrylquinoline-4-carboxamide]", "values": [{"measurement": "IC50", "setting": "A549", "result": "> 10", "unit": "µM"}, {"measurement": "IC50", "setting": "HD-MB03", "result": "> 10", "unit": "µM"}, {"measurement": "IC50", "setting": "MDA-MB-231", "result": "> 10", "unit": "µM"}, {"measurement": "IC50", "setting": "RPMI-8402", "result": "1.14 ± 0.12", "unit": "µM"}, {"measurement": "IC50", "setting": "SU-DHL-8", "result": "1.64 ± 0.25", "unit": "µM"}]}, {"smiles": "COc1cc(/C=C/c2cc(C(=O)Nc3c(C)cccc3C)c3ccccc3n2)cc(OC)c1OC", "note": "[4n, (E)-N-(2,6-dimethylphenyl)-2-(3,4,5-trimethoxystyryl)quinoline-4-carboxamide]", "values": [{"measurement": "IC50", "setting": "A549", "result": "> 10", "unit": "µM"}, {"measurement": "IC50", "setting": "HD-MB03", "result": "> 10", "unit": "µM"}, {"measurement": "IC50", "setting": "MDA-MB-231", "result": "> 10", "unit": "µM"}, {"measurement": "IC50", "setting": "RPMI-8402", "result": "0.79 ± 0.07", "unit": "µM"}, {"measurement": "IC50", "setting": "SU-DHL-8", "result": "0.46 ± 0.05", "unit": "µM"}]}, {"smiles": "COc1cc(/C=C/c2cc(C(=O)Nc3ccc([N+](=O)[O-])cc3)c3ccccc3n2)cc(OC)c1OC", "note": "[4s, (E)-N-(4-nitrophenyl)-2-(3,4,5-trimethoxystyryl)quinoline-4-carboxamide]", "values": [{"measurement": "IC50", "setting": "A549", "result": "> 10", "unit": "µM"}, {"measurement": "IC50", "setting": "HD-MB03", "result": "> 10", "unit": "µM"}, {"measurement": "IC50", "setting": "MDA-MB-231", "result": "> 10", "unit": "µM"}, {"measurement": "IC50", "setting": "RPMI-8402", "result": "> 10", "unit": "µM"}, {"measurement": "IC50", "setting": "SU-DHL-8", "result": "1.37 ± 0.14", "unit": "µM"}]}]}
